In assay [1] the target is T1, androgen receptor (Rattus norvegicus, UniProt P15207).
T1 construct: the prostates are removed, weighed and homogenized at 0° C; from tissue; host or cells: prostate cytosol (209,000 g supernatant) of castrated male Sprague Dawley rats
T1 sequence (P15207 1-902): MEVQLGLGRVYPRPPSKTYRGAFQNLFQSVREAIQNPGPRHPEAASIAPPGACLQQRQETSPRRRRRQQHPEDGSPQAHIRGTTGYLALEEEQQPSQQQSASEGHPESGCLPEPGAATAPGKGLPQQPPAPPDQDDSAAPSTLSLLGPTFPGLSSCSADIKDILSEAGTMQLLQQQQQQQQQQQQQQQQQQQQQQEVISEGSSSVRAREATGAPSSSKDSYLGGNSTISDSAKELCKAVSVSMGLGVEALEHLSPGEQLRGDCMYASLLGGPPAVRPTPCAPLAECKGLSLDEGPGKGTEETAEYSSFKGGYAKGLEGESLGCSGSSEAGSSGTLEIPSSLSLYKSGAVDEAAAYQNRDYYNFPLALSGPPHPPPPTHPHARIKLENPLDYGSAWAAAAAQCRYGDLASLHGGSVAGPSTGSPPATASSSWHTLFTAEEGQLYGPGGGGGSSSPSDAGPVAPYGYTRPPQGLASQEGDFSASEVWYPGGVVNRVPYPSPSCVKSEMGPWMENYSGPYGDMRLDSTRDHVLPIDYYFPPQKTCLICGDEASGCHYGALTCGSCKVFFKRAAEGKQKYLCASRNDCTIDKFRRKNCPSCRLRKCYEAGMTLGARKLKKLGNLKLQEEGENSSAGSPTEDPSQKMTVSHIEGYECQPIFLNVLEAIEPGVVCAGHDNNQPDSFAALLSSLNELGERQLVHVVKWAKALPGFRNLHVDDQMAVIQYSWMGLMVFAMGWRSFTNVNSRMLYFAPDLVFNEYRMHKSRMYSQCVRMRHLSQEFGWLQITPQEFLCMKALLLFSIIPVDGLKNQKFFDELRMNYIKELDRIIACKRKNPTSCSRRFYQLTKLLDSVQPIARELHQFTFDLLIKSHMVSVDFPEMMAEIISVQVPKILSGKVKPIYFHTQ
As to the kind of experiment: Study of the affinity of the products of the invention for the androgen receptor (displacement of tritiated testosterone, rat prostate cytosol). It counts as binding, Male Sprague Dawley EOPS rats. The conditions noted are these: Incubation: 24 hours, 0° C., RBA=100 (CH)/(CX), testosterone = 100. The procedure: 1) Study of the affinity of the products of the invention for the androgen receptor
Male Sprague Dawley EOPS rats weighing 180-200 g, castrated 24 hours previously, are sacrificed, the prostates are removed, weighed and homogenized at 0° C. using a Potter glass, in a buffered solution (10 mM Tris, 0.25M saccharose, 0.1 mM PMSF (phenylmethanesulphonylfluoride), 20 mM sodium molybdate, HCl pH 7.4) to which is added extemporaneously 2 mM of DTT (DL dithiothreitol), at the rate of 1 g of tissue per 8 ml of buffer.
The homogenate is then ultracentrifuged at 0° C., for 30 minutes at 209,000 g. […] Calculation of the relative bond affinity (RBA).
The following 2 curves are drawn: the percentage of the bound tritiated hormone B/T as a function of the logarithm of the concentration of the unlabelled reference hormone and B/T as a function of the logarithm of the concentration of the unlabelled product tested. The straight line of the equation I50 =(B/Tmax+B/Tmin)/2 is determined. B/Tmax=% of the bound tritiated hormone for an incubation of this tritiated hormone at the concentration (T). B/Tmin=% of the bound tritiated hormone for an incubation of this tritiated hormone at the concentration (T) in the presence of a large excess of unlabelled hormone (2500.10^-9 M).
The intersections of the straight line I50 and the curves enable the concentrations of the unlabelled reference hormone (CH) and of the unlabelled tested product (CX) which inhibit by 50% the binding of the tritiated hormone on the receptor to be evaluated.

Assay [2] relates to renal ornithine decarboxylase (ODC). In words: Determination of the androgen or anti-androgen activity using dosage of ornithine decarboxylase (ODC) in castrated mice receiving testosterone propionate. It counts as in vivo, male SWISS mice. The conditions noted are these: percutaneous route, 1.5 mg/kg in 10 μl; testosterone propionate 3 mg/kg sub-cutaneous; kidneys 20 hours after treatment. The protocol: 2) Determination of the androgen or anti-androgen activity of the products of the invention using dosage of ornithine decarboxylase (ODC).
20 hours after the treatments, the animals are sacrificed, the kidneys are removed, then homogenized at 0° C., using a teflon glass grinder in 10 volumes of Tris-HCl 50 mM (pH 7.4) buffer containing 250 μM of pyridoxal phosphate, 0.1 mM EDTA, and 5 mM of dithiothreitol. The homogenate is then centrifuged at 209,000 g for 30 minutes.
At 37° C., renal ornithine decarboxylase converts an isotopic mixture of unlabelled ornithine and tritiated ornithine into unlabelled putrescine and tritiated putrescine.
The putrescine is then collected on selective ion-exchange papers. After drying, the excess unconverted tritiated and unlabelled ornithine is eliminated by washing 3 times with 0.1M of ammonium hydroxide. The papers are dried, then the radioactivity is counted after addition of scintillating Aqualite.
The results are expressed as fmoles (10^-15 M) of tritiated putrescine formed/hour/mg of proteins.
Test: the products are administered by percutaneous route at 1.5 mg/kg in a volume of 10 μl.

Consider three molecules from patent publication US5750553A, “Optionally substituted phenylimidazolidines, their preparation process and intermediates, their use as medicaments and the pharmaceutical compositions containing them” (Roussel Uclaf, priority 1994, dated 1998).

As for `CC1(CO)C(=O)N(c2ccc(C#N)c(C(F)(F)F)c2)C(=O)N1CCF` (centres unmarked) [Example 3, 4-(2,5-dioxo 3-(2-fluoroethyl) 4-(hydroxymethyl) 4-methyl 1-imidazolidinyl)2-(trifluoromethyl) benzonitrile], the “relative bond affinity (RBA)” value in assay [1] is 6. For the same molecule, the “% of inhibition of the ODC of the controls receiving only testosterone propionate” value in assay [2] is listed as 47%.
On the same counts, the results for `CN1C(=O)N(c2ccc(C#N)c(C(F)(F)F)c2)C(=O)C1(C)CF` (centres unmarked) [Example 6] are 16 and 84%.
On to `N#Cc1ccc(N2C(=O)NC(CO)(CO)C2=O)cc1C(F)(F)F` [Example 26, 4-(4,4-bis(hydroxymethyl)-2,5-dioxo-1-imidazolidinyl)-2-(trifluoromethyl)-benzonitrile], for which, in assay [1], the “relative bond affinity (RBA)” value is reported as 4.
